Results taken from US20260085053A1, “BENZOFURAN DERIVATIVES AS SIK INHIBITORS AND THE USE THEREOF” (BEONE MEDICINES I GMBH, priority 2023, published 2026).

Key:
[1] = molecular target: T1, SIK1 kinase (aa1-303, Thermo Fisher) (Homo sapiens, UniProt P57059); experiment: Biochemical activities determination for SIK1 protein (TR-FRET); conditions: 110 uM ATP, 0.5 μM STK1 substrate
T1 construct: SIK1 kinase (aa1-303, Thermo Fisher); purchased Thermo Fisher
In short: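 TR-FRET kinase assay with SIK1 (aa1-303), 110 uM ATP, 0.5 μM STK1 substrate and 0-10 μM compound in Tris pH 7.5 with MgCl2, EGTA, DTT, Triton X-100. Enzyme preincubated with compound 60 min, reaction 180 min at room temperature; 665/620 nm ratio after overnight detection; IC50 from four-parameter logistic fit.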

[2] = molecular target: T2, SIK2 kinase (full length, Thermo Fisher) (Homo sapiens, UniProt Q9H0K1); experiment: Biochemical activities determination for SIK2 protein (TR-FRET); conditions: 80 uM ATP, 0.5 μM substrate
T2 construct: SIK2 kinase (full length, Thermo Fisher); purchased Thermo Fisher
T2 sequence (Q9H0K1 whole entry): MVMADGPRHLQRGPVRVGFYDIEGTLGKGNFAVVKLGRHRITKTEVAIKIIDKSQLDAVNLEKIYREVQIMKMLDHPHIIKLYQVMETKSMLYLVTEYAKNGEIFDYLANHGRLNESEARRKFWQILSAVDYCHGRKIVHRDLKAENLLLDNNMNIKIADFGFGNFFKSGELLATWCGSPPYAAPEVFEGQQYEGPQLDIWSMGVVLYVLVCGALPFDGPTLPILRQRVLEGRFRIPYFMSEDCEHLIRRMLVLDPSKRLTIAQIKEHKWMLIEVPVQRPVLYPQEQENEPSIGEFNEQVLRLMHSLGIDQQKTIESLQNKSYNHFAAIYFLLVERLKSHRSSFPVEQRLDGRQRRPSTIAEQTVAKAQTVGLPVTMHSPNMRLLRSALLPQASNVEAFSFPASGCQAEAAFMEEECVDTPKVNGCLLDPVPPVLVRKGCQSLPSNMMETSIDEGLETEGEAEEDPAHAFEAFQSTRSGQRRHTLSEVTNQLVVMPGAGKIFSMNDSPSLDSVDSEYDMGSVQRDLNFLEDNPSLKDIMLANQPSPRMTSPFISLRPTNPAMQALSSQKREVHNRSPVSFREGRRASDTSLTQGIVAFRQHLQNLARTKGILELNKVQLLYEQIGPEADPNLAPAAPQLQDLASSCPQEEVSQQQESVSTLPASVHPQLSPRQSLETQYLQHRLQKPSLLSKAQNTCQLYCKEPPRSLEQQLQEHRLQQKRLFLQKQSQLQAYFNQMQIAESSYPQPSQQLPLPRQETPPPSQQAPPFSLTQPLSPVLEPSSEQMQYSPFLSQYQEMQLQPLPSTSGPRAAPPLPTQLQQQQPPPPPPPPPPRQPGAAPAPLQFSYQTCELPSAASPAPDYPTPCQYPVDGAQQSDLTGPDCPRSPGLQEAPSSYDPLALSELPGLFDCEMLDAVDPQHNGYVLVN
In short: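 Full-length SIK2 preincubated 60 min with 0–10 μM compound, then reacted 180 min at room temperature with 80 uM ATP and 0.5 μM biotinylated substrate (pH 7.5 Tris/MgCl2 buffer). Phosphorylation detected by TR-FRET (665/620 nm ratio, cryptate antibody/streptavidin-XL665) after overnight incubation; IC50 from four-parameter logistic fit.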

[3] = molecular target: T3, SIK3 kinase (aa59-365, Thermo Fisher) (Homo sapiens, UniProt Q9Y2K2); experiment: Biochemical activities determination for SIK3 protein (TR-FRET); conditions: 125 uM ATP, 0.5 μM STK1 substrate
T3 construct: SIK3 kinase (aa59-365, Thermo Fisher); purchased Thermo Fisher
T3 sequence (Q9Y2K2 59-365): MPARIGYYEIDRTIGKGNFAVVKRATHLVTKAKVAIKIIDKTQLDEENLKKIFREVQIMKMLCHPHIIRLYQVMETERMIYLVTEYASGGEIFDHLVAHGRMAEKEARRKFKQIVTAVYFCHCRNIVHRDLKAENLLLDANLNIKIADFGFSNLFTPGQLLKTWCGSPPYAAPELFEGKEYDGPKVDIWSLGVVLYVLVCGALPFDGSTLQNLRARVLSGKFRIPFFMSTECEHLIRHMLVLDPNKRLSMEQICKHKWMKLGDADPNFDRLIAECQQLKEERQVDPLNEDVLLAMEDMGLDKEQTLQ
In short: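 SIK3 (aa59-365) was preincubated with compound (0-10 μM) for 60 min at room temperature in Tris buffer pH 7.5. The reaction was then started with 125 uM ATP and 0.5 μM STK1 substrate and run 180 min at room temperature. Phospho-substrate was detected by HTRF (665/620 nm ratio), and IC50 came from a four-parameter logistic fit.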

T1 sequence (P57059 1-303): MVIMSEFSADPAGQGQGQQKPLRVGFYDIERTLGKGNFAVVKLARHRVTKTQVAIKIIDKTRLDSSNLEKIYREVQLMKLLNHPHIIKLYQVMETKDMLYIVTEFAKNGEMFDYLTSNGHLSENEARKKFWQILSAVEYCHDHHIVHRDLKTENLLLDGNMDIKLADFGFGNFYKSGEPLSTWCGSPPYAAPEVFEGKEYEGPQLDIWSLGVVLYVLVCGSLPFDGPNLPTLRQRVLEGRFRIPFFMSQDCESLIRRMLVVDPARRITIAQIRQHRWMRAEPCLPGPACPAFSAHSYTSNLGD

COc1cc(-c2coc3cc(-c4cnn(C)c4)cc(F)c23)cc2c1C(=O)N(CC(F)(F)F)CC2 [Example 11, 6-(4-fluoro-6-(1-methyl-1H-pyrazol-4-yl)benzofuran-3-yl)-8-methoxy-2-(2,2,2-trifluoroethyl)-3,4-dihydroisoquinolin-1 (2H)-one] showed an IC50 [1] of 1550 nM, an IC50 [2] of 49 nM and an IC50 [3] of 155 nM.

With COc1cc(-c2coc3cc(-c4cnn(C)c4)c(F)cc23)cc2c1C(=O)N(CC(F)(F)F)CC2 [Example 12, 6-(5-fluoro-6-(1-methyl-1H-pyrazol-4-yl)benzofuran-3-yl)-8-methoxy-2-(2,2,2-trifluoroethyl)-3,4-dihydroisoquinolin-1 (2H)-one] the IC50 [1] was 2280 nM, the IC50 [2] was 59 nM and the IC50 [3] was 186 nM.

Cn1cc(-c2ccc3c(-c4cc5c(c(OC(F)F)c4)C(=O)N(CC(F)(F)F)CC5)coc3c2)cn1 [Example 13, 8-(difluoromethoxy)-6-(6-(1-methyl-1H-pyrazol-4-yl)benzofuran-3-yl)-2-(2,2,2-trifluoroethyl)-3,4-dihydroisoquinolin-1 (2H)-one] showed an IC50 [1] of 647 nM, an IC50 [2] of 25 nM and an IC50 [3] of 54 nM.

In the case of Cc1ccc(-c2ccc3c(-c4cc5c(c(OC(F)F)c4)C(=O)N(CC(F)(F)F)CC5)coc3c2)nn1 [Example 14, 8-(difluoromethoxy)-6-(6-(6-methylpyridazin-3-yl)benzofuran-3-yl)-2-(2,2,2-trifluoroethyl)-3,4-dihydroisoquinolin-1 (2H)-one], the IC50 [1] is reported as > 10000 nM, the IC50 [2] is reported as 310 nM and the IC50 [3] is reported as 329 nM.
